Assay results reported in patent US11555036B2, “FGFR4 inhibitor, preparation method therefor and pharmaceutical use thereof” (Abbisko Therapeutics Co., Ltd., priority 2016, dated 2023).

Columns and labels:
FGFR4 = FGFR4 (Homo sapiens, UniProt P22455); assay: FGFR4 Caliper Assay (in vitro biochemical kinase analysis of FGFR4); details: read-out: Enzymatic activity FGFR4 IC50
Procedure, shortened: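 Kinase reaction at 30° C for 40 min in 50 mM HEPES pH 7.5, 16 mM MgCl2, 1 mM DTT, 0.6% DMSO, stopped with EDTA. Phosphorylated and unphosphorylated fluorescent peptides separated by Caliper microfluidic mobility shift. IC50 by non-linear regression of percent inhibition.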

[1] = test system: Huh7 hepatocellular carcinoma cells; assay: FGFR4 cell proliferation experiment, Cell Titer Glo (CTG); format: cell-based; details: Homo sapiens, Huh-7, 72 h, HuH-7 cells, 3 days; for IC50: concentration leading to absolute half growth inhibition; for EC50: concentration leading to half maximal growth inhibition
Procedure, shortened: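 Cells treated with 5-fold serial dilutions starting at 10 μM for 3 days at 37° C, 5% CO2. Proliferation/survival quantified as cellular ATP by CellTiter-Glo luminescence.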

Sequence of FGFR4 (P22455 22-802): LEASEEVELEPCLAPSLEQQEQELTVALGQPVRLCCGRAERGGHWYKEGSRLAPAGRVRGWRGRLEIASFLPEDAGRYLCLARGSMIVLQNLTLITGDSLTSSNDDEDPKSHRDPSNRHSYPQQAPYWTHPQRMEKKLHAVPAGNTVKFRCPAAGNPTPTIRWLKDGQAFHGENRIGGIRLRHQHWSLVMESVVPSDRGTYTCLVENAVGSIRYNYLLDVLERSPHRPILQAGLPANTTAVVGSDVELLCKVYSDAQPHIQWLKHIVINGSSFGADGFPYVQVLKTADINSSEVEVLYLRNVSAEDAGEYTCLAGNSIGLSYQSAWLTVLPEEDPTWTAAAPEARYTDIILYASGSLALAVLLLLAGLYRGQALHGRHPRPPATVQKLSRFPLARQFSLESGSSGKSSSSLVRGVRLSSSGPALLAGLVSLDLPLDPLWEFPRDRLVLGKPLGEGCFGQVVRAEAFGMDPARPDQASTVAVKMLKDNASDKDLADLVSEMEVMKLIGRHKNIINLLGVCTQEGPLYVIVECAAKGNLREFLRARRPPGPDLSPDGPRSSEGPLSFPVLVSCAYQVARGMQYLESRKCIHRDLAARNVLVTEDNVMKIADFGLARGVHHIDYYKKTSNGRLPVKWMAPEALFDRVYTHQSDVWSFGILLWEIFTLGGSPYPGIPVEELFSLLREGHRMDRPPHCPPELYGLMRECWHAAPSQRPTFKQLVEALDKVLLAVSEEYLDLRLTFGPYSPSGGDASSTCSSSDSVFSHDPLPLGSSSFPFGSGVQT

IC50 (FGFR4) | IC50 [1] | EC50 [1] | Compound
28.9 nM | > 10000 nM | > 10000 nM | C=CC(=O)Nc1cccc(C)c1Nc1cc2c(=O)oc(-c3c(Cl)c(OC)cc(OC)c3Cl)cc2cn1 [Example 7, N-(2-((3-(2,6-dichloro-3,5-dimethoxyphenyl)-1-oxo-1 H-pyrano[4,3-c]pyridin-7-yl)amino)-3-methylphenyl) acrylamide]
6.5 nM | 13.3 nM | 9.6 nM | C=CC(=O)N[C@H]1COC[C@H]1Nc1ncc2cc(-c3c(Cl)c(OC)cc(OC)c3Cl)nc(N3CCC3)c2n1 [Example 657, N-((3R,4S)-4-((8-(azetidin-1-yl)-6-(2,6-dichloro-3,5-dimethoxyphenyl)py-rido[3,4-d]pyrimidin-2-yl)amino)tetra-hydrofuran-3-yl)acrylamide]
6.6 nM | 24.3 nM | 18 nM | C=CC(=O)N[C@H]1COC[C@H]1Nc1ncc2cc(-c3c(F)c(OC)cc(OC)c3F)nc(N3CC(OC)C3)c2n1 [Example 659, N-((3R,4S)-4-((6-(2,6-difluoro-3,5-dimethoxyphenyl)-8-(3-methoxyazeti-din-1-yl)pyrido[3,4-d]pyrimidin-2-yl)a-mino)tetrahydrofuran-3-yl)acryl-amide]
7.5 nM | 11.8 nM | 9.5 nM | C=CC(=O)N[C@H]1CCOC[C@H]1Nc1ncc2cc(-c3c(F)c(OC)cc(OC)c3F)nc(N3CCC(OC)CC3)c2n1 [Example 795, N-((3S,4S)-3-((6-(2,6-difluoro-3,5-dimethoxyphenyl)-8-(4-methoxy-piperidin-1-yl)pyrido[3,4-d]pyrimidin-2-yl)amino)tetrahydro-2H-pyran-4-yl)acrylamide]
3.1 nM | 6.2 nM | 4.8 nM | C=CC(=O)N[C@H]1CCOC[C@H]1Nc1ncc2cc(-c3c(F)c(OC)cc(OC)c3F)nc(N3CCC3)c2n1 [Example 792, N-((3S,4S)-3-((8-(azetidin-1-yl)-6-(2,6-difluoro-3,5-dimethoxyphenyl)py-rido[3,4-d]pyrimidin-2-yl)amino)tetra-hydro-2H-pyran-4-yl)acrylamide]
6.3 nM | 10 nM | 6.9 nM | C=CC(=O)N[C@H]1COC[C@H]1Nc1ncc2cc(-c3c(F)c(OC)cc(OC)c3F)nc(N3CCOCC3)c2n1 [Example 687, N-((3R,4S)-4-((6-(2,6-difluoro-3,5-dimethoxyphenyl)-8-morpholino-pyrido[3,4-d]pyrimidin-2-yl)a-mino)tetrahydrofuran-3-yl)acrylamide]
14.7 nM | 22.6 nM | 16 nM | C=CC(=O)N[C@H]1COC[C@H]1Nc1ncc2cc(-c3c(Cl)c(OC)cc(OC)c3Cl)nc(N3CC4(COC4)C3)c2n1 [Example 668, N-((3R,4S)-4-((6-(2,6-dichloro-3,5-dimethoxyphenyl)-8-(2-oxa-6-aza-spiro[3.3]heptan-6-yl)pyrido[3,4-d]py-rimidin-2-yl)amino)tetrahydrofuran-3-yl)acrylamide]
20.2 nM | 31 nM | 19 nM | C=CC(=O)N[C@H]1COC[C@H]1Nc1ncc2cc(-c3c(Cl)c(OC)cc(OC)c3Cl)nc(C3=CCOCC3)c2n1 [Example 756, N-((3R,4S)-4-((6-(2,6-dichloro-3,5-dimethoxyphenyl)-8-(3,6-dihydro-2H-pyran-4-yl)pyrido[3,4-d]pyrimidin-2-yl)amino)tetrahydrofuran-3-yl)acryl-amide]
8.5 nM | 13.6 nM | 11.4 nM | C=CC(=O)N[C@H]1CCOC[C@H]1Nc1ncc2cc(-c3c(F)c(OC)cc(OC)c3F)nc(N3CC(C)(OC)C3)c2n1 [Example 790, N-((3S,4S)-3-((6-(2,6-difluoro-3,5-dimethoxyphenyl)-8-(3-methoxy-3-methylazetidin-1-yl)pyrido[3,4-d]py-rimidin-2-yl)amino)tetrahydro-2H-pyran-4-yl)acrylamide]
11 nM | 37.2 nM | 18.5 nM | C=CC(=O)N[C@H]1COC[C@H]1Nc1ncc2cc(-c3c(F)c(OC)cc(OC)c3F)nc(NCC3CC3)c2n1 [Example 424, N-((3R,4S)-4-((8-((cyclopropylmeth-yl)amino)-6-(2,6-difluoro-3,5-dimeth-oxyphenyl)pyrido[3,4-d]pyrimidin-2-yl)amino)tetrahydrofuran-3-yl)acryl-amide]
5.6 nM | 2.1 nM | 1.3 nM | C=CC(=O)N[C@H]1COC[C@H]1Nc1ncc2cc(-c3c(Cl)c(OC)cc(OC)c3Cl)nc(N3CCC(OC)CC3)c2n1 [Example 693, N-((3R,4S)-4-((6-(2,6-dichloro-3,5-dimethoxyphenyl)-8-(4-methoxy-piperidin-1-l)pyrido[3,4-d]pyrimidin-2-yl)amino)tetrahydrofuran-3-yl)acryl-amide]
